The values that follow come from US10138282B2, “Peptide antagonist of LL-37” (INDIANA UNIVERSITY RESEARCH AND TECHNOLOGY CORPORATION, priority 2014, dated 2018).

For series [1], the system named is Reovirus dsRNA, Reo S4. Description: IL-6 production in BEAS-2B cells in the presence of Reovirus dsRNA Reo S4. The class given is cell-based, human. As to the method:
(§1) IL-6 production was quantified by ELISA using the OptEIA™ kit (BD Biosciences). A typical assay used 2×10^4 BEAS-2B cells/well grown for 24 h in flat bottom 96-well plates. Poly(I:C) was added to a final concentration of 0.13 μg/ml. Antimicrobial peptides were added to the cell culture medium to a final concentration of 3 μM unless specified otherwise. All ELISA results shown were performed in triplicate and in at least three independent experiments.
Herein, we analyzed the LL-37 orthologs from Rhesus monkeys, pig, sheep, guinea pigs, rabbit, as well as mouse (FIG. 14A). All peptides were chemically synthesized and assayed for the induction of inflammatory cytokine IL-6 in the presence of the double-stranded RNA mimic, poly(I:C) or the Reovirus dsRNA, Reo S4 (FIGS. 14B and 14C). […] Importantly, all LL-37 orthologs tested had the ability to reduce IL-6 production in response to LPS (FIG. 14E).

Series [2] relates to Toll-like receptor 9. As to the kind of experiment: IL-6 production in BEAS-2B cells in the presence of ssDNA ligand ODN. The class given is cell-based, human.
The subject of series [3] is TLR3 signaling. Description: IL-6 production (ELISA) in BEAS-2B cells induced with poly(I:C). The class given is cell-based, human. The note with it: for Enhancement of TLR3 signaling / poly(I:C)-induced IL-6, in words: BEAS-2B cells. As to the method: as §1
(§2) To better define how residues in LL-37 contribute to function, several variants derived from LL-37 were tested for: 1) repression of TLR4 signaling by LPS, 2) enhancement of TLR3 signaling by poly(I:C), and 3) binding to LL-37. Signaling by TLR3 and TLR4 were monitored using ELISA to detect IL-6 secreted into the medium of BEAS-2B cells.

Series [4] has as its system Escherichia coli ATCC 25922. Description: MIC assay, broth microdilution (CLSI). The class given is cell-based. The note with it: E. coli ATCC 25922. As to the method: MIC assays were performed according to protocols for broth microdilution according to the Clinical Laboratory Standards Institute (CLSI, 2015. Methods for Dilution Antimicrobial susceptibility tests for bacterial that grow aerobically; Approved standard—tenth edition).
On the technique in general: Broth dilution looks for growth in wells or tubes with falling amounts of substance.

Series [5] in a line: Dynamic light scatter spectroscopy, hydrodynamic radius. In kind it is physicochemical. As to the method:
The hydrodynamic radii of LL-37 and other peptides were monitored by a Zetasizer Nano-S instrument (Malvern Instruments). All measurements were taken with 1 μM of peptide dissolved in phosphate buffer adjusted to the desired pH at 22° C.

Series [6] addresses T1, FPRL-1 receptor (Homo sapiens, UniProt P25090).
T1 construct: a human lung epithelial cell line that expresses endogenous FPRL-1; endogenous in cells; host or cells: BEAS-2B
T1 sequence (P25090 1-351): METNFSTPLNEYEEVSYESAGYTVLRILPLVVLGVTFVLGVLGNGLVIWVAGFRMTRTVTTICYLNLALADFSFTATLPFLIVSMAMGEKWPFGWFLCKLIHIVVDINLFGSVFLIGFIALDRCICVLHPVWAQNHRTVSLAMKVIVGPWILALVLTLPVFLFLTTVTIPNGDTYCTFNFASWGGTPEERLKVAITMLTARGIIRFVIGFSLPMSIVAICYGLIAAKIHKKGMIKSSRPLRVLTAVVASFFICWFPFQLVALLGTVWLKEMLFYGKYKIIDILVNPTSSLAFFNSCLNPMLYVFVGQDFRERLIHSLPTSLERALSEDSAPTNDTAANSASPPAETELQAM
Description: IL-6 production in BEAS-2B cells knocked down with siRNA (FPRL-1, EGFR, control). The class given is cell-based. The procedure:
BEAS-2B cells were seeded at 2×10^6 cells per 6-well plate for 6 h prior to transfection with 30 nM of a pool of three siRNAs from Santa Cruz Biotechnology. Transfections were done using Lipofectamine 2000.
Cells were grown on poly-L-lysine (Life Technologies). The level of target mRNA was analyzed using qRT-PCR and normalized to the levels of GAPDH mRNA. The sequences of the primers will be made available upon request. Poly(I:C) was added 48 h after siRNA transfection and IL-6 levels in the culture media were collected 24 h later.
LL-37's enhancement of TLR3 signaling required trafficking of LL-37/poly(:C) to endosomes via the FPRL-1 receptor. Therefore, we examined whether LL-29 used the FPRL-1 receptor to enter cells. siRNA was used to knock down the expression of either FPRL-1, EGFR, or TLR3. […] Co-localization of fLL-37 and rpIC was reduced to less than a third of the control. […] Knockdowns performed with siRNAs to either a nonspecific control or EGFR had no effect on the enhancement of IL-6 production.
Will LL-29 affect the use of the FPRL-1 receptor by the LL-37/poly(I:C) complex? BEAS-2B cells knocked down for FPRL-1 were treated with LL-37 along with additional concentrations of LL-37, Pentamide, LL-29, Peptide A, or LL8-37 (FIG. 6C). Signaling by TLR3 was determined by the amount of IL-6 secreted in the cell culture media. A control siRNA had no effect on WT LL-37/poly(I:C) enhancement of IL-6 production.
LL-37 uses the Formyl peptide receptor-like 1 (FPRL-1) receptor to deliver nucleic acids into endosomes, where activation of the Toll-like receptors that recognize nucleic acids takes place (Singh et al., 2014). We sought to determine whether the LL-37 orthologs from other mammals could also use the FPRL-1 in the human BEAS-2B cells to deliver dsRNA. BEAS-2B cells were treated with poly(I:C) along with the peptides and the peptides from pig, sheep, rabbit, and mouse had reduced ability to use the FPRL-1 to activate IL-6 production.

Series [7] deals with TLR3. As to the kind of experiment: Confocal microscopy, co-localization with TLR3 in BEAS-2B cells. The class given is cell-based, human. The settings on record: added to fLL-37 and poly(I:C). As to the method: Cells were grown on poly-L-lysine coated coverslips to 60% confluency. After 1 h incubation with fluorescently-labeled peptides in the absence or presence of poly(I:C), the cells were washed with PBS and fixed with 4% paraformaldehyde for 15 min at room temperature. The cells were again washed with PBS and mounted on glass slides with anti-fade mounting medium and DAPI (Life Technology), then dried overnight in the dark. Micrographs were acquired with a Leica TCS SP5 confocal inverted-base microscope with a 63× oil objective. Images were analyzed by Leica LAS AF and Image J software. Colocalization of fluorophores was quantified using the Image J plug-in tool JACoP (16).
We examined whether it could prevent the trafficking of LL-37/poly(I:C) to endosomes that harbor TLR3. Confocal microscopy was used to examine the effect of LL-29 on the colocalization of LL-37/poly(I:C) with TLR3 in BEAS-2B cells.

The subject of series [8] is LL-37 enhancement of TLR3 signaling. Description: Antagonism of LL-37/poly(I:C)-enhanced IL-6 production in BEAS-2B cells. In kind it is cell-based, human. As to the method:
as §1
We examined whether LL-29 could affect the enhancement of TLR3 signaling by WT LL-37/poly(I:C). An increasing amount of LL-29 along with a constant amount of LL-37/poly(I:C) was used to assess IL-6 production in BEAS-2B cells. […] That is, LL-29 abrogated LL-37's ability to enhance TLR3 signaling. That is, LL-29 is an example of a peptide antagonist of LL-37 function.

Series [9] concerns the target T2, f-LL37 (Homo sapiens, UniProt P49913).
T2 sequence (P49913 134-170 limits assumed): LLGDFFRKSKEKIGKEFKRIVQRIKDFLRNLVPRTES
As to the kind of experiment: Fluorescence polarization, interaction of peptides with fluorescein-labeled LL-37. In kind it is binding. As to the method:
Peptide binding to poly(I:C) was analyzed by monitoring fluorescence polarization using the Synergy H1 microplate reader (BioTek). Fluorescein-labeled LL-37 was titrated to a 100 μL solution containing poly(I:C) and phosphate buffers at different pHs. Interactions between LL-37 and other peptides were analyzed using LL-37 labeled at the N-terminus with fluorescein (0.1 μM), and peptides were titrated from 1 nM to 1000 nM in phosphate buffer at pH 7.0. Interaction between poly(I:C) and different peptides was determined by titrating fluorescein-labeled poly(I:C) (0.1 μM) with peptides added to final concentrations of 10 to 500 nM in phosphate buffer at pH 7.4. All polarization assays were performed in triplicate.
Background: In fluorescence polarisation assays a small probe gives low polarisation when free and higher when bound to something large.

The test system of series [10] is TLR4 signaling. Description: IL-6 production (ELISA) in BEAS-2B cells induced with LPS. The class given is cell-based, human. As to the method: as §1, §2
On the technique in general: ELISA stands for enzyme-linked immunosorbent assay.

“Also recorded” adds a separate entry of the source.

Turning to “CAP-18: LL-37 ortholog from rabbit, SEQ ID NO: 24 (GLRKRLRKFRNKIKEKLKKIGQKIQGLLPKLAPRTDY; (1)..(37) Rabbit CAP-18)”, the “Enhancement of IL-6 production / signaling by Reo S4, in words” value in series [1] is given as “failed to enhance signaling”. In addition, the “Induction of signaling by the ssDNA ligand for Toll-like receptor 9, in words” value in [2] is “failed to induce signaling”. Further, in [3], the “Enhancement of TLR3 signaling / poly(I:C)-induced IL-6, in words” value was “failed to enhance signaling”.

“LLGDFFRKSKEKIGKEFKRIVQRIKDFLR ((1)..(29) LL29; listed as Homo sapiens) [LL-29]”: in [4] (peptide 10 μg/ml, antibiotic: None), the “MIC assay result, peptide without antibiotic” value is listed as “growth”. In series [4] (peptide final conc. 10 μg/ml), the “MIC (μg/ml) of Doxorubicin in the presence of peptide” value is at most 0.06 µg/mL, the “MIC (μg/ml) of Kanamycin in the presence of peptide” value is at most 0.5 µg/mL and the “MIC (μg/ml) of Trimethoprim in the presence of peptide” value was at most 0.06 µg/mL. Also, the “Improvement of the MIC of antibiotics by peptide” value in [4] (with doxorubicin, kanamycin, trimethoprim) is given as “at least 4 fold”. The “Hydrodynamic radius (nm) pH 5.8” value in [5] (1.0 μM peptide, phosphate buffer pH 5.8) is given as 8 nm. The “Hydrodynamic radius (nm) pH 7.4” value in series [5] (1.0 μM peptide, phosphate buffer pH 7.4) turned out to be 1106 nm. For the same substance, the “pH-dependent dissociation of peptide particles, in words” value in [5] (acidification of phosphate buffer) is listed as “readily dissociated into nanometer-sized particles; also recorded: dissociated as a function of pH”. In addition, the “IL-6 production, peptide with poly(I:C), in words” value in [6] (knockdown of either FPRL-1 or EGFR) is on record as “did not enhance IL-6 production”. The “IL-6 production, peptide added along with LL-37 and poly(I:C), in words” value in [6] (siRNA to FPRL-1 or nonspecific control) is listed as “resulted in a reduction in IL-6 levels”. In [7], the “Effect of added peptide on co-localization of fLL-37 and TLR3, in words” value is “reduced the co-localization between fLL-37 and TLR3”. For the same substance, the “IL-6 production with LL-37/poly(I:C) at four molar excess of peptide, in words” value in series [8] (four molar excess of LL-29 relative to LL-37) was “comparable to the level observed in the absence of LL-37”. Moreover, the “Antagonism of LL-37 enhancement of TLR3 signaling (IL-6), in words” value in [8] (peptide added with LL-37/poly(I:C), BEAS-2B cells) was “reduced the enhancement of TLR3 signaling by LL-37 in a concentration-dependent manner”. In series [3] (BEAS-2B cells induced with 130 ng/ml of poly(I:C), LL-37 100), the “IL-6 production (%) poly(I:C)-depend.” value amounted to 47 ± 3%. In addition, the “Interaction with fLL-37, in words” value in series [9] is “interacted with fLL-37 to the same degree as LL-37; also recorded: comparable ability to interact with fLL-37”. Besides, the “Suppression of TLR4 signaling / LPS-induced IL-6, in words” value in series [10] (BEAS-2B cells) was “retained the ability to suppress TLR4 signaling in response to LPS”. The “IL-6 production (%) LPS-depend.” value in [10] (BEAS-2B cells induced with 1.0 μg/ml of LPS, LL-37 100) amounted to 143 ± 18%. The “IL-6 production in response to LPS, % of the control level without either of the two peptides” value in series [10] (four molar excess of LL-29 to LL-37, BEAS-2B cells) amounted to 64%.

On to “PAMP-37: LL-37 ortholog from pig, SEQ ID NO: 22 (GLLSRLRDFLSDRGRRLGEKIERIGQKIKDLSEFFQS; (1)..(37) Pig PMAP-37; listed as Sus scrofa)”, for which the “Enhancement of IL-6 production / signaling by Reo S4, in words” value in series [1] is “failed to enhance signaling”. Moreover, the “Induction of signaling by the ssDNA ligand for Toll-like receptor 9, in words” value in series [2] is “failed to induce signaling”. Moreover, in series [3], the “Enhancement of TLR3 signaling / poly(I:C)-induced IL-6, in words” value is “failed to enhance signaling”.
